Consider five molecules from PMC8145596, “Novel Chemically Modified Curcumin (CMC) Derivatives Inhibit Tyrosinase Activity and Melanin Synthesis in B16F10 Mouse Melanoma Cells” (Biomolecules, 2021).

Entries after “also recorded” stand apart in the source; their conditions may differ. Like-named read-outs stand apart in the source and are kept apart here.

Data set [1] relates to MITF protein in B16F10 cells. As to the kind of experiment: MITF protein levels by cell-based ELISA. Set-up: species or system mouse. Particulars: 48 h. How it is done:
Microphthalmia Transcription Factor (MITF), a known transcription factor for the tyrosinase gene, is a master regulator of melanogenesis and is activated by cyclic adenosine monophosphate (cAMP) signaling after UV irradiation, reflecting the role of cAMP as a key maturation factor in melanogenesis. The effects of PC and CMCs on MITF protein levels were assayed using a cell-based ELISA (Lifespan Biosciences, Seattle, WA, USA). Briefly, B16F10 cells were cultured in a 96-well plate at 1 × 10^4 cells/well for 24 h and then the medium was replaced with fresh medium containing compounds in 0.1% DMSO and cultures maintained for further 48 h. The cells were then fixed, and subsequent steps were conducted according to the manufacturers’ instructions. MITF protein levels were normalized to cell density by measuring the absorbance of crystal violet stain added to the fixed cells and the data was reported as % of control.
Background: An ELISA detects its analyte on a solid surface through an enzyme-linked reagent.

Data set [2] has as its system cAMP levels in B16F10 cells. The data set can be described thus: cAMP levels by competitive ELISA in B16F10 lysates. Format: cell-based, mouse. To be noted: for effect on cAMP levels: all concentrations tested. The text has this:
For assaying the levels of cAMP in B16F10 cellular lysates, a competitive ELISA (Enzo Life Sciences, Farmingdale, NY, USA) was used in non-acetylated format based on manufacturer instructions.

Data set [3] deals with B16F10 mouse melanoma cells. The data set can be described thus: Melanin levels in B16F10 cells. Format: cell-based. To be noted: for suppression of melanin levels: 48 h. The protocol: B16F10 cells (1 × 10^5 cells/well) were seeded in 12-well plates and cultured for 24 h. The medium was then replaced with compounds at nontoxic concentrations that were selected on the basis of the MTS assay and incubated for another 48 h. After the treatments, the cells were detached using TrypLE (1×), and cell pellets were washed in PBS. Cell pellets were visually observed for lightening of the pigment. After aspiration, 250 μL of 1N NaOH was added and heated to 70 °C to solubilize melanin. The aliquots were then transferred to a 96-well plate and absorbance was read at 475 nm using a microplate reader. The absorbance was normalized to total protein content and was expressed as % of control.

The test system of data set [4] is B16F10 mouse melanoma cells. The data set can be described thus: MTS cell viability assay. The data set is classed as cell-based. Particulars: for cell viability / cytotoxicity: 48 h; for cell viability: B16F10; for cytotoxicity: B16F10, full concentration range. The protocol:
B16F10 mouse melanoma cells (CRL-6475™) were obtained from American Type Culture Collection (ATCC, Manassas, VA, USA) and cultured using Dulbecco’s Modified Eagle Medium (DMEM) supplemented with 10% heat-inactivated fetal bovine serum (HI-FBS) and 1% antibiotics (penicillin-streptomycin) in a humidified incubator with 95% air—5% CO2 at 37 °C. In order to test the four CMCs (CMC2.14, CMC2.24, CMC2.5 and CMC2.23) to that of PC, for their effects on melanin content, we first screened them for cytotoxicity using a tetrazolium assay with MTS (Promega CellTiter Aqueous One). Briefly, B16F10 cells were seeded at 4 × 10^3 cells/well in a 96-well plate for 24 h. The compounds were diluted using culture medium to yield a final DMSO in all groups of 0.16% and added to the cell monolayers in wells after 24 h. Control was treated with 0.16% DMSO. At the end of 48 h, the medium was aspirated and replaced by 100 μL of fresh medium. 20 μL of MTS reagent was then added, and the plate was incubated at 37 °C for 40 min. At this point, the absorbance of 100 μL aliquots was read at 490 nm using a microplate reader. Cell viability was calculated from the absorbance values relative to control groups and expressed in %.
For orientation: Tetrazolium assays rely on reduction of a dye to a coloured formazan, in cell work by metabolically active cells.

Data set [5] can be described thus: DPPH radical scavenging antioxidant assay. To be noted: 60 μM DPPH, 30 min. How it is done:
Melanin production catalyzed by the tyrosinase pathway is often associated with higher levels of oxidative stress and reactive oxygen species (ROS) generation. […] DPPH (2,2-Diphenyl-1-picrylhydrazyl) is a stable free radical which changes color from purple to yellow upon reduction by antioxidant compounds. Briefly, 180 µL of DPPH reagent that was prepared in methanol was combined with 20 µL of different concentrations of the compounds in a 96-well plate to give a final DPPH concentration of 60 μM in each well. A control group consisted of DPPH only while ascorbic acid (AA) at 20 µM was used as a positive control. The plate was covered and incubated for 30 min, after which the absorbance was read at 517 nm and the DPPH radical scavenging activity was reported as % of control.
In general terms: The DPPH test is a chemical assay of radical scavenging.

A further data set deals with mushroom tyrosinase (Agaricus bisporus, UniProt C7FF04). As to the kind of experiment: Diphenolase activity assay of mushroom tyrosinase (L-DOPA substrate). The data set is classed as biochemical. Particulars: for mechanism of inhibition of diphenolase activity: L-B and Dixon plots, nonlinear curve fitting; for Ki: read-out: apparent Ki, diphenolase (L-DOPA); for diphenolase inhibitory potency: compared with CMC2.24. The protocol:
The direct effects of the compounds on the diphenolase activity of tyrosinase were tested using mushroom tyrosinase with a fixed concentration of L-DOPA as the substrate. Briefly, 80 µL of each compound prepared at different concentrations in 50 mM sodium phosphate buffer (pH 6.8) was added to wells of a 96-well microplate, followed by 100 µL of freshly prepared substrate solution (3 mM L-DOPA in buffer). The reaction was initiated by adding 20 µL of mushroom tyrosinase (final concentration of enzyme in wells was 3.5 µg/mL). The production of Dopachrome was monitored by measuring the absorbance at 475 nm every 30 s for a period of 30 min at 30 °C, using a microplate reader in the kinetic mode. The slopes of the plots of absorbance vs. time were calculated for comparison of enzyme activity in the presence of each of the inhibitors to that of the inhibitor-free control.
In order to study the mechanism of inhibition of tyrosinase activity by the compounds as a function of substrate concentration, we conducted a kinetic study of monophenolase and diphenolase activities at multiple concentrations of substrates. For the monophenolase activity assay, the final concentration of enzyme was 12.5 µg/mL and the final substrate concentrations were 0.125, 0.25, 0.5 and 1 mM, while for diphenolase activity assay, the final concentration of enzyme was 3.5 µg/mL and the final substrate concentrations ranged from 0.1–3 mM. The slopes from the linear range of the progress curves of absorbance at 475 nm vs. time were recorded as apparent velocities and the reciprocal values, 1/v, were plotted as functions of the reciprocal values of the substrate concentrations at different fixed inhibitor concentrations according to the method of Lineweaver and Burk (L-B). Dixon plots of the reciprocal velocity values, (1/v), as functions of the inhibitor concentrations at different fixed substrate concentrations were also constructed to investigate further the apparent mode of inhibition by the compounds.
We have also analyzed the inhibition data using nonlinear curve fitting algorithms which are more robust than the linearized L-B and Dixon plotting methods that can weigh the data from evenly spaced concentrations disproportionately. The inhibition constants were calculated by non-linear least squares curve fitting using a modified Levenberg-Marquardt algorithm and data was fitted to models of pure competitive, noncompetitive, and uncompetitive inhibition using Enzfitter software (version 2.0, Biosoft, Cambridge, UK). This analysis was undertaken to assess the apparent potency of compounds, PC, CMC2.24, and CMC2.23 for each putative mode of inhibition.

Sequence of mushroom tyrosinase (C7FF04 1-392): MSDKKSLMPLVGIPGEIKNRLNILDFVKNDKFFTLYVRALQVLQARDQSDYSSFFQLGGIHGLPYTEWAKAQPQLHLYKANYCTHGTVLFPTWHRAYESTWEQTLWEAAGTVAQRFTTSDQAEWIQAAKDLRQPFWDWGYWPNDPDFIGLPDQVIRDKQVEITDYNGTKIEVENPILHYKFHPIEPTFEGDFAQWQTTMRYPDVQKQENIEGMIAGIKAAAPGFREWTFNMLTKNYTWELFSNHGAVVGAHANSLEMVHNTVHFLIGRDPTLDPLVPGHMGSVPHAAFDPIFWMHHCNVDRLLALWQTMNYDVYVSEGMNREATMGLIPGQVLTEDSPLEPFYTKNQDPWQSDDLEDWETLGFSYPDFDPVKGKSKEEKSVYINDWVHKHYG

By cell viability is commonly meant the share of living cells, or the viability signal relative to a control. A high value points to better survival. In general, IC50 refers to the concentration that inhibits the measured activity by half. On to “1,7-bis(4-hydroxy-3-methoxyphenyl)-1,6-heptadien-3,5-dione [PC, reference compound]”, for which, in data set [1] (10 µM), the “attenuation of MITF protein levels” value is 28.62%. In addition, in data set [2] (48 h), the “effect on cAMP levels” value is given as “trend for attenuation of cAMP levels, but the levels were not significant”. Moreover, in data set [3] (10 µM), the “suppression of melanin levels” value came to 20.92%. Also, the cell viability was 29.47% in data set [4] (20 µM) and 30.83% in data set [4] (25 µM). Besides, the “concentrations with significant cytotoxicity” value in data set [4] (B16F10, 48 h) is over 10 µM. The “DPPH radical scavenging activity” value in data set [5] is listed as “high radical scavenging activity”. For the same molecule, the “inhibition of diphenolase activity” value at mushroom tyrosinase (5 μM compound) is reported as 14.47%; at mushroom tyrosinase (10 μM compound), 12.41%; at mushroom tyrosinase (20 μM compound), 14.19%; on mushroom tyrosinase (25 μM compound) it was 16.39%. On mushroom tyrosinase, the “mechanism of inhibition of diphenolase activity” value is on record as “not a pure competitive inhibitor; also recorded: mixed inhibitor”. Also, the “Vmax, diphenolase (L-DOPA)” value on mushroom tyrosinase (competitive model fit) worked out at 44.67 mM/min; on mushroom tyrosinase (noncompetitive model fit), 48.28 mM/min; at mushroom tyrosinase (uncompetitive model fit), 47.52 mM/min. Besides, the Ki on mushroom tyrosinase (fit to pure competitive inhibition) turned out to be 45.1 µM; at mushroom tyrosinase (fit to pure noncompetitive inhibition), 164 µM; on mushroom tyrosinase (fit to pure uncompetitive inhibition) it was 129 µM. On mushroom tyrosinase (fixed substrate concentration (L-DOPA), read-out: IC50 for Diphenolase inhibition), the IC50 was found to be 299 ± 35.6 µM.
`COC(=O)/C(C(=O)/C=C/c1ccc(O)c(OC)c1)=C(O)\C=C\c1ccc(O)c(OC)c1` [CMC2.5, 4-methoxycarbonyl curcumin]: the entries for the “attenuation of MITF protein levels” value in data set [1] (20 µM) and in data set [1] (25 µM) were 32.17% and 35.4%, respectively. In data set [2] (48 h), the “effect on cAMP levels” value is given as “did not affect cAMP levels at any concentration”. The figures for the “suppression of melanin levels” value in data set [3] (20 µM) and in data set [3] (25 µM) were 34.84% and 31.40%, respectively. Further, the “cytotoxicity” value in data set [4] was “nontoxic over the full concentration range”. The “DPPH radical scavenging activity” value in data set [5] is “significant radical scavenging activity”. The “diphenolase inhibitory potency” value on mushroom tyrosinase is on record as “somewhat weaker inhibitory potency”.
In the case of `COC(=O)/C(C(=O)/C=C/c1ccc(O)cc1)=C(O)\C=C\c1ccc(O)cc1` [CMC2.14], in data set [1] (10 µM), the “attenuation of MITF protein levels” value was 23.67%. Further, the “effect on cAMP levels” value in data set [2] (48 h) is recorded as “did not affect cAMP levels at any concentration”. Besides, in data set [3] (10 µM), the “suppression of melanin levels” value was 28.42%. Further, in data set [5], the “DPPH radical scavenging activity” value is “did not demonstrate such activity”. On mushroom tyrosinase, the “diphenolase inhibitory potency” value is “somewhat weaker inhibitory potency”.
In the case of `COc1cc(/C=C/C(=O)/C(C(=O)Nc2ccccc2)=C(O)/C=C/c2ccc(O)c(OC)c2)ccc1O` [CMC2.23], the figures for the “attenuation of MITF protein levels” value in data set [1] (10 µM), in data set [1] (20 µM) and in data set [1] (25 µM) were 32.27%, 39.29% and 37.22%, respectively. For the same molecule, the “effect on cAMP levels” value in data set [2] (48 h) was “did not affect cAMP levels at any concentration”. The “suppression of melanin levels” value in data set [3] (10 µM) turned out to be 28.63%; in data set [3] (20 µM) it was 33.68%; in data set [3] (25 µM) it was 37.87%. Besides, the “cytotoxicity” value in data set [4] was “nontoxic over the full concentration range”. In addition, the “DPPH radical scavenging activity” value in data set [5] is listed as “significant radical scavenging activity”. For the same molecule, the “mechanism of inhibition of diphenolase activity” value at mushroom tyrosinase is given as “mixed mechanism of inhibition; also recorded: mixed, but predominantly competitive, mode of inhibition”. Also, the “diphenolase inhibitory potency” value at mushroom tyrosinase is recorded as “somewhat weaker inhibitory potency”. Besides, the “Vmax, diphenolase (L-DOPA)” value at mushroom tyrosinase (competitive model fit) was found to be 38.0 mM/min; on mushroom tyrosinase (noncompetitive model fit), 39.05 mM/min; on mushroom tyrosinase (uncompetitive model fit), 39.0 mM/min.
In general, inhibition refers to the change of the read-out against control, counted positive when it falls. With `O=C(/C=C/c1ccc(O)cc1)/C(C(=O)Nc1ccccc1)=C(O)/C=C/c1ccc(O)cc1` [CMC2.24], the “attenuation of MITF protein levels” value is listed as 28.39% in data set [1] (10 µM), 31.79% in data set [1] (20 µM) and 38.84% in data set [1] (25 µM). For the same molecule, the “attenuation of cAMP levels” value is given as 18.13% in data set [2] (10 µM, 48 h (not significant)); 38.18% in data set [2] (20 µM, 48 h); 49.42% in data set [2] (25 µM, 48 h). Also, the “suppression of melanin levels” value amounted to 32.54% in data set [3] (10 µM), 43.53% in data set [3] (20 µM) and 41.07% in data set [3] (25 µM). Moreover, the entries for the “fold higher level of melanin inhibition vs PC” value in data set [3] (20 µM) and in data set [3] (25 µM) were 1.5 fold and 2 fold, respectively. Moreover, the “cytotoxicity” value in data set [4] was “nontoxic over the full concentration range”. In addition, in data set [5], the “DPPH radical scavenging activity” value was “did not demonstrate such activity”. For the same molecule, on mushroom tyrosinase (20 μM compound), the inhibition at 20 µM turned out to be 35.4%. Moreover, at mushroom tyrosinase (25 μM compound), the inhibition at 25 µM worked out at 38.2%. For the same molecule, at mushroom tyrosinase, the “mechanism of inhibition of diphenolase activity” value is “mixed mode of inhibition with a predominantly competitive mechanism”. Further, the “Vmax, diphenolase (L-DOPA)” value on mushroom tyrosinase (competitive model fit) turned out to be 36.0 mM/min; on mushroom tyrosinase (noncompetitive model fit), 43.69 mM/min; at mushroom tyrosinase (uncompetitive model fit) it was 41.99 mM/min.
